Assay results reported in patent US20030207924A1, “Compounds that modulate PPAR activity and methods of preparation” (priority 2002, published 2003).

Tests used:
hPPARβ chimeric receptor = biological target: T1, hPPARβ chimeric receptor (Homo sapiens, UniProt Q03181); assay: Transient transfection assay in HepG2 cells, Gal4-hPPARβ chimeric receptor, luciferase reporter (Test A); type: cell-based
T1 construct: "expression plasmids encoding hPPARα, hPPARβ or mPPARγ chimeric receptors"
T1 sequence (Q03181 171-441 limits assumed): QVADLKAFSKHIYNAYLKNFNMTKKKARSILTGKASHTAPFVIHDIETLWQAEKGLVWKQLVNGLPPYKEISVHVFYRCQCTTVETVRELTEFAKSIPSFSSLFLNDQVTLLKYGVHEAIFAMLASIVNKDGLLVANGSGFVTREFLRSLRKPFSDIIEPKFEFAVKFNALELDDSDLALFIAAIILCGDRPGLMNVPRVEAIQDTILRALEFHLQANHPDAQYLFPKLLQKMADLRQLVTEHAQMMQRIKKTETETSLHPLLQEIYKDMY
Experimental: (§1) 1. Test A. Transient Transfections Assay Using the HepG2 Hepatoma Cell Line.
(§2) HepG2 cells were transiently transfected with an expression plasmids encoding hPPARα, hPPARβ or mPPARγ chimeric receptors and a reporter containing the yeast upstream activating sequence (UAS) upstream of the viral E1B promoter controlling a luciferase reporter gene. In addition, the plasmid pRSVβ-gal was used to control for transfection efficiency. HepG2 cells were grown in DMEM supplemented with 10% FBS and […] non-essential amino acid. On the first day, cells were split into 100 mm dishes at 2.5×10^6/dish and incubated overnight at 37° C./5% CO2. On the second day the cells were transiently transfected with plasmid DNA encoding a chimeric receptor, the luciferase reporter gene; and β-gal. For each 100 mm dish, 15 μg of lucifease reporter (PG5E1b) DNA, 15 μg of Gal4-PPAR chimeric receptor DNA, and 1.5 μg of β-gal plasmid DNA were mixed with 1.4 ml of opti-MEM in the tube. 28 μl of LipoFectamine-2000 reagent was added to 1.4 ml of opti-MEM in the tube, and incubate for 5 min at RT. The diluted Lipofectamine-2000 reagent was combined with the DNA mixture, and incubate for 20 min at RT. After fresh medium was added to each 100 mm dish of cells, 2.8 ml of Lipofectamine2000-DNA mixture was added dropwise to the 100 mm dish containing 14 ml of medium, and incubate 37° C. overnight. On day three cells were trypsinized off the 100 mm dishes and re-plated on 96 well plates. Cells were plated at 2.5×10^4 cells per well in 150 μl of media and 50 μl of compound diluted by media was added. The test compounds added were in the range from 50 μM to 50 pM. After addition of compounds, the plates were incubated at 37° C. for 24 hours. Subsequently cells were washed with once with 100 μl of PBS, lysed, and processed for measuring luciferase and β-gal activity using Dual-Light luciferase kit from Tropix®, according to the manufacturer's recommendations, on an EG&G Bethold MicroLumat LB96P luminometer. EC50 values were obtained using the GraphPad Prism™ program.

hPPARα chimeric receptor = biological target: T2, hPPARα chimeric receptor (Homo sapiens, UniProt Q07869); assay: Transient transfection assay in HepG2 cells, Gal4-hPPARα chimeric receptor, luciferase reporter (Test A); type: cell-based; conditions: HepG2 cells, hPPARα chimeric receptor, luciferase reporter, 24 hours; read-out: EC50-α (Hep G2-hAlpha EC50)
T2 construct: "expression plasmids encoding hPPARα, hPPARβ or mPPARγ chimeric receptors"
T2 sequence (Q07869 200-468 limits assumed): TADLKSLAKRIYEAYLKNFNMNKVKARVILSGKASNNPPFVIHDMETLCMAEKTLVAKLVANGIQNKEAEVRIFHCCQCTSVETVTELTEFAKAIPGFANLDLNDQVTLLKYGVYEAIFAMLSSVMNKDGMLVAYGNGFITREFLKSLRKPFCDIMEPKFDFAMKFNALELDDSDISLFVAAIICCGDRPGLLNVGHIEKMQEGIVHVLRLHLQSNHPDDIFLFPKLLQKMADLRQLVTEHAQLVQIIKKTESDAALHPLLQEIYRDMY
Experimental: as §1
as §2, with “program. […] Accordingly, the compounds of the present invention should find considerable therapeutic applications for hypercholesterolemia and hyperlipidemia.” for “program.”

SMILES | EC50 (hPPARβ chimeric receptor) | EC50 (hPPARα chimeric receptor) | EC50-β (Hep G2-hBeta EC50) (hPPARβ chimeric receptor; HepG2 cells, hPPARβ chimeric receptor, luciferase reporter, 24 hours)
Cc1nc(-c2ccc(C(F)(F)F)cc2)sc1CSc1ccc([C@@H]2CC2C(=O)O)cc1 (stereo in doubt) [Example 12, 2-{4-[4-Methyl-2-(4-trifluoromethyl-phenyl)-thiazol-5-ylmethylsulfanyl]-phenyl}-cyclopropanecarboxylic acid] | 303 nM | 0.135 µM | 
Cc1nc(-c2ccc(C(F)(F)F)cc2)sc1CSc1ccc(OCCC(=O)O)cc1 [Example 16, 3-{4-[4-Methyl-2-(4-trifluoromethyl-phenyl)-thiazol-5-ylmethylsulfanyl]-phenoxy}-propionic acid] | 1950 nM | 1.23 µM | 
Cc1nc(-c2ccc(C(F)(F)F)cc2)sc1CSc1ccc(CC(C(=O)O)n2cccc2)cc1 (stereo not drawn) [Example 24, 3-{4-[4-Methtyl-2-(4-trifluoromethyl-phenyl)-thiazol-5-ylmethylsulfanyl]-phenyl}-2-pyrrol-1-yl-propionic acid] |  | 2000 µM | 2 mM

The remaining molecules from weak to strong by EC50 (hPPARβ chimeric receptor), led by results:

EC50 (hPPARβ chimeric receptor) | EC50 (hPPARα chimeric receptor) | SMILES | EC50-β (Hep G2-hBeta EC50) (hPPARβ chimeric receptor; HepG2 cells, hPPARβ chimeric receptor, luciferase reporter, 24 hours)
45.3 nM | 0.84 µM | COc1cc(OCC(=O)O)cc(C)c1SCc1sc(-c2ccc(C(F)(F)F)cc2)nc1C [Example 8, {3-Methoxy-5-methyl-4-[4-methyl-2-(4-trifluoromethyl-phenyl)-thiazol-5-ylmethylsulfanyl]-phenoxy}-acetic acid] | 
2.3 nM | 0.121 µM | COc1cc(OCC(=O)O)c(C)cc1SCc1sc(-c2ccc(C(F)(F)F)cc2)nc1C [Example 5, {5-Methoxy-2-methyl-4-[4-methyl-2-(4-trifluoromethyl-phenyl)-thiazol-5-ylmethylsulfanyl]-phenoxy}-acetic acid] | 
0.07 nM | 0.17 µM | Cc1cc(SCc2sc(-c3ccc(C(F)(F)F)cc3)nc2C)c(F)cc1OCC(=O)O [Example 26, 2-[5-fluoro-2-methyl-4-({4-methyl-2-[4-(trifluoromethyl)phenyl](1,3-thiazol-5-yl)}methylthio)phenoxy]acetic acid] | 
